Assays:
[1] = Experiment 1: dexamethasone concentration in the retina after intravitreal, intrascleral or intrachoroidal gelatin implant (LC/MS/MS); type: in vivo, Japanese white rabbits; conditions: Japanese white, rabbit, 3 μg
Experimental: Experiments were performed to determine the drug release effect of an intrachoroidal implant, an intravitreal implant, and an intrascleral implant. In Experiment 1, the implant was placed in the choroid using the known method illustrated in FIG. 10. […] Therefore, the implant was placed in the choroid using the known method in order to compare the intravitreal implant, the intrascleral implant, and the intrachoroidal implant as to the drug release effect.
Gelatin was cut to have a size of 0.3 (length)×0.3 (width)×0.1 (thick) mm.
Twelve 3-month-old Japanese white rabbits (purchased from Japan SLC, Inc., weight: 2 to 2.5 kg) were used as subjects. The rabbits were equally divided into an intrachoroidal implant group, an intravitreal implant group, and an intrascleral implant group, and the implant was placed in one of the eyes of each rabbit belonging to each group.
Regarding the intrachoroidal implant group, the vitreous gel in the eyeball was liquefied, and the implant was placed in the choroid using the known method for placing an implant in the choroid. The implant was placed in the choroid at a position 6 mm below the cornea.
Regarding the intravitreal implant group, the implant was placed in the vitreous body at a position 2 mm above the cornea.
Regarding the intrascleral implant group, the implant was placed in the sclera at a position 6 mm below the cornea.
The eyeball was removed from each rabbit (four rabbits) belonging to each group when 1, 3, and 24 hours had elapsed after the placement of the implant. […] In FIG. 14, the symbol “*” indicates P<0.05, and the symbol “**” indicates P<0.01.

[2] = Experiment 2: dexamethasone concentration in the retina after DEX-PLA implant placed in the choroid near the optic disc (LC/MS/MS); type: in vivo, Japanese white rabbits; conditions: Japanese white, rabbit, other: intrachoroidal implant near the optic disc, 3 μg
Description: Nine 3-month-old Japanese white rabbits (purchased from Japan SLC, Inc., weight: 2 to 2.5 kg) were used as subjects, and the implant was placed in one of the eyes of each rabbit.
The implant was placed in the choroid using the method for placing an implant in the choroid according to the embodiments of the invention. Specifically, the conjunctiva was incised, and an injection needle having a size of 25G was inserted between the conjunctiva and the sclera. The tip of the injection needle was advanced to the vicinity of the optic disc along the surface of the sclera. After placing a vitrectomy lens over the cornea so that the eyeground could be observed, the tip of the injection needle appearing white was observed while observing the eyeground through the vitrectomy lens and pressing the sclera using the tip of the injection needle. The tip of the injection needle was moved to determine an appropriate insertion position of the implant in the vicinity of the optic disc, and the tip of the injection needle was inserted diagonally into the sclera. The tip of the injection needle was advanced into the choroid, and the implant was inserted into the choroid through the tip opening formed at the tip of the injection needle.
The eyeball was removed from each rabbit (three rabbits) belonging to each group when 24 hours, 1 week, and 3 weeks had elapsed after the placement of the implant.

concentration at 1 h ([1]; other: intrachoroidal implant): 409 ± 115 ng/g
concentration at 3 h ([1]; other: intrachoroidal implant): 23.8 ± 10.2 ng/g
concentration at 24 h ([1]; other: intrachoroidal implant): 4.7 ± 3.3 ng/g
concentration at 1 h ([1]; other: intrascleral implant): 122 ± 79.7 ng/g
concentration at 3 h ([1]; other: intrascleral implant): 5.4 ± 4 ng/g
concentration at 24 h ([1]; other: intrascleral implant): 3.3 ± 3.2 ng/g
concentration at 1 h ([1]; other: intravitreal implant): 13.5 ± 8.7 ng/g
concentration at 3 h ([1]; other: intravitreal implant): 3.6 ± 4.2 ng/g
concentration at 24 h ([1]; other: intravitreal implant): 4.2 ± 4.5 ng/g
concentration at 1 week [2]: 41.2 ± 14.2 ng/g
concentration at 3 weeks [2]: 17.2 ± 11.3 ng/g
concentration at 24 h [2]: 159 ± 28.2 ng/g
Compound: C[C@@H]1C[C@H]2[C@@H]3CCC4=CC(=O)C=C[C@]4(C)[C@@]3(F)[C@@H](O)C[C@]2(C)[C@@]1(O)C(=O)CO [dexamethasone]
